This is an account of results in ChEMBL document CHEMBL1201862, “PubChem BioAssay data set” (2004).

Each structure is given as a SMILES string. The source made the active and inactive calls.

A word on the IC50: it is the concentration that gives 50% inhibition. As usually defined, the CC50 is the concentration at which the toxic effect on the cells reaches its halfway point. By AC50 is commonly meant the midpoint of the concentration-response curve, whichever way the signal moves.

The nature of test [1]: IC50 of Artemis nuclease activity blockers – biochemical, fluorescence intensity, dose response (AID 720701).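 Note: Artemis endonuclease enzyme.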 Type of test: functional.
Test [2] in a line: viability loss in THP-1 monocytes – THP-1 cells, cytotoxicity control for Vif-APOBEC3G degradation inhibitor project, dose response (AID 1117359). Type of test: functional. As to conditions: THP-1.
Test [3] in a line: viability of uninfected HEp-2 cells – cell-based, HTS, cytotoxicity control for RSV inhibitor project, dose response (AID 2410). As to conditions: human respiratory syncytial virus. The test is classed as functional.
Test [4] addresses T1, Histone-lysine N-methyltransferase NSD2 (Homo sapiens, UniProt O96028).
T1 sequence (O96028 whole entry): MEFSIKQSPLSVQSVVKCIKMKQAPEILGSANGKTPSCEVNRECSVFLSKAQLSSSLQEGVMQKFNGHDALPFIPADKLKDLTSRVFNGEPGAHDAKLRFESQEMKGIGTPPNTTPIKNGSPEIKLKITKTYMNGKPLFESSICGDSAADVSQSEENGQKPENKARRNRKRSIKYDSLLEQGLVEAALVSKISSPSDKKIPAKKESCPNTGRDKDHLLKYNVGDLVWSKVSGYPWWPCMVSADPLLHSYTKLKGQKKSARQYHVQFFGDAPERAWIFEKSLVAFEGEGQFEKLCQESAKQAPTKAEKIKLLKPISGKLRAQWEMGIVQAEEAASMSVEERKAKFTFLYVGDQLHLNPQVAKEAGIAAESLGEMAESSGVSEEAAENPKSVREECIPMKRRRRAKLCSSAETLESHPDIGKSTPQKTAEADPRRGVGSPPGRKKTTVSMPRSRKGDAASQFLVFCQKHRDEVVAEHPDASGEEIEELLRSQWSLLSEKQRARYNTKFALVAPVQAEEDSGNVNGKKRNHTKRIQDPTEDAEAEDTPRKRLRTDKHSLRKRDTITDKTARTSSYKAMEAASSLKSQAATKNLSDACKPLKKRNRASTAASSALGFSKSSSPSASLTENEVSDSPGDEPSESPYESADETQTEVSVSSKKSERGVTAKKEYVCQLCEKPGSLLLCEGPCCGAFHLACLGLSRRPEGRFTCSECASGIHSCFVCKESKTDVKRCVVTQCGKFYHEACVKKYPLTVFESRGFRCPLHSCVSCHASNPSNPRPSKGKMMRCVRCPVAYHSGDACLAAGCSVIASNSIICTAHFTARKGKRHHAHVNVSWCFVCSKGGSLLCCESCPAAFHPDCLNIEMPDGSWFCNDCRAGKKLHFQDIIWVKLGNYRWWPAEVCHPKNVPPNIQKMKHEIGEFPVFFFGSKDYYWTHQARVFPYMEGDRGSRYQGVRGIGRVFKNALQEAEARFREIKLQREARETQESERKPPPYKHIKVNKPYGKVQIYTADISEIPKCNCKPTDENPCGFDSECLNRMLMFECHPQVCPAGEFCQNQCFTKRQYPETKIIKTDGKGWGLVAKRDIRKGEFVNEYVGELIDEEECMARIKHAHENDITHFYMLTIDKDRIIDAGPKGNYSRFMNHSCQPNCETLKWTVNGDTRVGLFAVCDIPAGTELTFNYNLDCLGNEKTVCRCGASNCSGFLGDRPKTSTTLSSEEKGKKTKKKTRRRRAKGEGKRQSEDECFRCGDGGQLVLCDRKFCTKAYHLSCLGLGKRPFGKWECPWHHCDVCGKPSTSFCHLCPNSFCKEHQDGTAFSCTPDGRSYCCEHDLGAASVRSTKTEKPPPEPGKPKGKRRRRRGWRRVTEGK
Type of test: biochemical.

Test [5] in a line: viability inhibitors of stage V gametocytes – luminescence, dose response (AID 1117278).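 Note: gametocytes exposed to compound for 24 hours.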 Type of test: functional, cell-based.
Test [6] is described as follows: viability loss in human Jurkat cells – cell-based, luminescence, cytotoxicity control for P. falciparum gametocyte viability project, dose response (AID 1117277).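 Note: potency reflects loss of cellular ATP meaning fewer viable cells.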 The test is classed as functional.
The target of test [7] is Mitogen-activated protein kinase 10 (Homo sapiens, UniProt P53779). Briefly: Dose response biochemical screening assay for inhibitors of c-Jun N-Terminal Kinase 3 (JNK3). [Related pubchem assays: 746 ].
Test [8] has as its target T2, 1-phosphatidylinositol 4,5-bisphosphate phosphodiesterase beta-3 (Homo sapiens, UniProt Q01970).
T2 sequence (Q01970 whole entry): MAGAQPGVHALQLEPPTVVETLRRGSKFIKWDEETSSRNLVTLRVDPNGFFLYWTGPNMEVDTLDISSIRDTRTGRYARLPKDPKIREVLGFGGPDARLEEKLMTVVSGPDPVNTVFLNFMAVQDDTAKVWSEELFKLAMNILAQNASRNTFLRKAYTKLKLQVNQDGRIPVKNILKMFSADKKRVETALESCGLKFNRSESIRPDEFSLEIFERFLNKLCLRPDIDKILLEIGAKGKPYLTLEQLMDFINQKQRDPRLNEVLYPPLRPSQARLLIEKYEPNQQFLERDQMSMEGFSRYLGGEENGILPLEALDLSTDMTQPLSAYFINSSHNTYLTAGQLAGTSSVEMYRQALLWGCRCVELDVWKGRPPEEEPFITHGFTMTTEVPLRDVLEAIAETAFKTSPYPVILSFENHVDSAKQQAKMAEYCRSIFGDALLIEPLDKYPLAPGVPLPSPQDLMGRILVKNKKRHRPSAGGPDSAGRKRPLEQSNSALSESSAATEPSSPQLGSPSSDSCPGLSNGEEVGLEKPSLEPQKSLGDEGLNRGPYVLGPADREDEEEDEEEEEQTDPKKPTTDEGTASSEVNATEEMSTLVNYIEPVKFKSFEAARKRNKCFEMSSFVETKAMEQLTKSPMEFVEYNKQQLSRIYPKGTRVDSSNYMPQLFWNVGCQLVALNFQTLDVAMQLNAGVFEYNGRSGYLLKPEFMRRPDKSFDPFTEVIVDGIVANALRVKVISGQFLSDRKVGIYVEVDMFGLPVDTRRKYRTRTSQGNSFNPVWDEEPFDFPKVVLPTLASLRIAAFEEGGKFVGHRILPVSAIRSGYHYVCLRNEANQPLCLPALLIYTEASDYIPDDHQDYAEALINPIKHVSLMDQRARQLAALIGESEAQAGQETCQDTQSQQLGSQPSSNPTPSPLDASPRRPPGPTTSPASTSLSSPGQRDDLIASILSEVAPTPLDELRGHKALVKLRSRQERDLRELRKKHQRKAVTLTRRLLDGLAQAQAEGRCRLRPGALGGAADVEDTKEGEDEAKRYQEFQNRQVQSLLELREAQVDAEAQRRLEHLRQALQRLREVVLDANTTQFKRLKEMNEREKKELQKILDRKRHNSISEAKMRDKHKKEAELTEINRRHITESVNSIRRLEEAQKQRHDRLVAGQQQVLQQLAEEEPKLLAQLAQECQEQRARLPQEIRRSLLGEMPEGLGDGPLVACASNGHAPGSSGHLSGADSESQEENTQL
Briefly: Fluorescence-based biochemical high throughput dose response assay to identify inhibitors of phospholipase C isozymes (PLC-B3).

Test [9] has as its target T3, 1-phosphatidylinositol 4,5-bisphosphate phosphodiesterase gamma-1 (Homo sapiens, UniProt P19174).
T3 sequence (P19174 whole entry): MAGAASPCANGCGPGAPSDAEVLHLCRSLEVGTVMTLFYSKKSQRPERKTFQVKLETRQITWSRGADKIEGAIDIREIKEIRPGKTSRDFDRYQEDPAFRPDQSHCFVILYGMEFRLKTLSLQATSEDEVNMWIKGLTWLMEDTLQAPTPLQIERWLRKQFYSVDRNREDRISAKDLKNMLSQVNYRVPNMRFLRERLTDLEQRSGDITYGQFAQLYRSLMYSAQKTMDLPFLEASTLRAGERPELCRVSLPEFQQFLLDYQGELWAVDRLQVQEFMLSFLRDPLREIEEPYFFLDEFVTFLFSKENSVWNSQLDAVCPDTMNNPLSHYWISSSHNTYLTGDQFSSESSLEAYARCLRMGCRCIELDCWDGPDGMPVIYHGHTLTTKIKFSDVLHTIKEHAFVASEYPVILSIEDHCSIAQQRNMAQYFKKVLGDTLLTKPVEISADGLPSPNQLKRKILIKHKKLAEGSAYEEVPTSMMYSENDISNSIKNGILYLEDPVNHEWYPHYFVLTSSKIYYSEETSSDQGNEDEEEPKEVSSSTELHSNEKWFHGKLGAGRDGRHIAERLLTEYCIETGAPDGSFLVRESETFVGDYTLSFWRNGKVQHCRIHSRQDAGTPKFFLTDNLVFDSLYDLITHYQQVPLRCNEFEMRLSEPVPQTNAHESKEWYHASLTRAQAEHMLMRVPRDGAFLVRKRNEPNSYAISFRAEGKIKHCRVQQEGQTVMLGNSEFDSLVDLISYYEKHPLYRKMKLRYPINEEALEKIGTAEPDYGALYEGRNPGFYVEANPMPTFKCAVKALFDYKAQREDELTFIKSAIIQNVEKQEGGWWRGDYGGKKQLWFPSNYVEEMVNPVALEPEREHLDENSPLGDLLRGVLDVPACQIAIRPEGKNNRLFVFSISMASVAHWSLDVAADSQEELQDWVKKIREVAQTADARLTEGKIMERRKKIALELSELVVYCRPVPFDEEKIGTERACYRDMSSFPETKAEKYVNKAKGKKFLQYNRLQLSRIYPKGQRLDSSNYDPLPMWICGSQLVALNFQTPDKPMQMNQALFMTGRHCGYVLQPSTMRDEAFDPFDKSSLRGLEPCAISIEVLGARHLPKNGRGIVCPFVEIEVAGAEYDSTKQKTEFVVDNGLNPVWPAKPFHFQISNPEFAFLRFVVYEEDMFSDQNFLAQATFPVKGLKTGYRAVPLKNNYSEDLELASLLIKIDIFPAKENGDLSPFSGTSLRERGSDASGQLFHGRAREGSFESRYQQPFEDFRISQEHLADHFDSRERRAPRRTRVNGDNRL
The experiment in a line: Counterscreen for inhibitors of phospholipase C isozymes (PLC-B3): Fluorescence-based biochemical high throughput dose response assay to identify inhibitors of phospholipase C isozymes (PLC-gamma1). A general note: The purpose of a counterscreen is to sort out artefacts and off-target activity.

Test [10] addresses DNA dC->dU-editing enzyme APOBEC-3A (Homo sapiens, UniProt P31941). Briefly: Dose Response confirmation of small molecule APOBEC3A DNA Deaminase Inhibitors via a fluorescence-based single-stranded DNA deaminase assay. [Related pubchem assays (depositor defined):AID493011, AID493024]. Type of test: functional.
In test [11] the target is T4, Estrogen receptor beta (Homo sapiens, UniProt Q92731).
In test [12] the target is T4, Estrogen receptor beta. Briefly: blockers of SRC-3 recruitment to ERβ – biochemical, ELISA, streptavidin-HRP readout, orthogonal assay, confirmation (AID 1060).
The target in test [13] is DNA dC->dU-editing enzyme APOBEC-3G (Homo sapiens, UniProt Q9HC16). The test is classed as functional.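 Note: Dose-response counterscreen measuring inhibition of APOBEC3G DNA deaminase activity, run while confirming APOBEC3A inhibitors.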
The target of another test is Paired box protein Pax-8 (Homo sapiens, UniProt Q06710). The experiment in a line: PAX8 transcriptional activity inhibition in RMG-I – RMG-I cells, luciferase, cherry-pick, dose response (AID 687027).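 Note: luciferase reporter driven by Pax8 target thyroperoxidase promoter measured by SteadyGlo luminescence.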 The test is classed as functional, cell-based.
Test [14] in a line: OVCAR8 cell viability loss – plate reader, dry powder samples, PAX8 project, dose response (AID 743197). The conditions noted are these: OVCAR-8. Type of test: functional, cell-based.
A short description of test [15]: OVCAR-3 cell viability loss – plate reader, dry powder samples, PAX8 inhibitor project, dose response (AID 743044). The test is classed as functional, cell-based.

Chain of Mitogen-activated protein kinase 10 (P53779 whole entry): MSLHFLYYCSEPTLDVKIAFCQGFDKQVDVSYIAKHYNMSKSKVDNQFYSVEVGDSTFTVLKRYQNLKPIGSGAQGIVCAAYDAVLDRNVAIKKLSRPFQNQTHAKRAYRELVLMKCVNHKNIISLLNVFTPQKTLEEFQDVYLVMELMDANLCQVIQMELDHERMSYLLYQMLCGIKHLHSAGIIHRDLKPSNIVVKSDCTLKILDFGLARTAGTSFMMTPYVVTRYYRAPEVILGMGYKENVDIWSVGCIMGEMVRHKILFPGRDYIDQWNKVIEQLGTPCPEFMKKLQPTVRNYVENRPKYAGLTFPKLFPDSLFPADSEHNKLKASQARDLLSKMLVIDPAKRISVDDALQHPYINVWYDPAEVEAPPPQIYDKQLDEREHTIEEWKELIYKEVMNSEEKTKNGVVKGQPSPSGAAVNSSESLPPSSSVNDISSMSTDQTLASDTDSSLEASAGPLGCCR
T4 sequence (Q92731 whole entry): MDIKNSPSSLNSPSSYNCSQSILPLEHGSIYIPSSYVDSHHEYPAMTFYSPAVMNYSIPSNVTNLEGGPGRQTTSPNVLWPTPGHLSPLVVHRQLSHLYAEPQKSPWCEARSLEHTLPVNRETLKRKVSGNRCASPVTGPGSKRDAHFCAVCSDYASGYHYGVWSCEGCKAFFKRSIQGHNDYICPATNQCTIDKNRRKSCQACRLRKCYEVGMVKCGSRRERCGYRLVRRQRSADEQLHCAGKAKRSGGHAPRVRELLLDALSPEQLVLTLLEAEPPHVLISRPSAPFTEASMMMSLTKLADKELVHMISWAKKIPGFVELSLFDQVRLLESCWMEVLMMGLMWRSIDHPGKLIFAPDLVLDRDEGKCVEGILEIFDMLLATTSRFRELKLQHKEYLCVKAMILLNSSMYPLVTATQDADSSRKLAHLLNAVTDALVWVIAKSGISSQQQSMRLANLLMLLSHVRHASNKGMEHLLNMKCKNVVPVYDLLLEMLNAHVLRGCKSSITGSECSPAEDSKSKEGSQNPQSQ
Chain of DNA dC->dU-editing enzyme APOBEC-3A (P31941 whole entry): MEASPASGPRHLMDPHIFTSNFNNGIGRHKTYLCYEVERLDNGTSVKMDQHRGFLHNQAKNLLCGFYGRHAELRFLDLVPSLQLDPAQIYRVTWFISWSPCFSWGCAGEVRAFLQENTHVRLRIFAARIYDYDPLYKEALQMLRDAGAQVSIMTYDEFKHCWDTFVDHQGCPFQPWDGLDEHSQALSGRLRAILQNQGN
Chain of Paired box protein Pax-8 (Q06710 whole entry): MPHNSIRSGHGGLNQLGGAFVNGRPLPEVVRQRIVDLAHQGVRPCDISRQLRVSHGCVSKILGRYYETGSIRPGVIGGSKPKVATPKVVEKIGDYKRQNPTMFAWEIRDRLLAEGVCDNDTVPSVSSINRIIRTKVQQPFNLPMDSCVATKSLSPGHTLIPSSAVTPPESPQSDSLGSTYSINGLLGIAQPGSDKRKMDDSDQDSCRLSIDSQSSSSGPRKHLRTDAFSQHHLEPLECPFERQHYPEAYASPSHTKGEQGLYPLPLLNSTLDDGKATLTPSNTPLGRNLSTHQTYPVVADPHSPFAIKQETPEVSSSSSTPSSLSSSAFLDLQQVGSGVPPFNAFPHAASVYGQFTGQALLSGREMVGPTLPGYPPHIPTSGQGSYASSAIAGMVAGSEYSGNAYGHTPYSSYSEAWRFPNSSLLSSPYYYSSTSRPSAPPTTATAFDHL
Chain of DNA dC->dU-editing enzyme APOBEC-3G (Q9HC16 whole entry): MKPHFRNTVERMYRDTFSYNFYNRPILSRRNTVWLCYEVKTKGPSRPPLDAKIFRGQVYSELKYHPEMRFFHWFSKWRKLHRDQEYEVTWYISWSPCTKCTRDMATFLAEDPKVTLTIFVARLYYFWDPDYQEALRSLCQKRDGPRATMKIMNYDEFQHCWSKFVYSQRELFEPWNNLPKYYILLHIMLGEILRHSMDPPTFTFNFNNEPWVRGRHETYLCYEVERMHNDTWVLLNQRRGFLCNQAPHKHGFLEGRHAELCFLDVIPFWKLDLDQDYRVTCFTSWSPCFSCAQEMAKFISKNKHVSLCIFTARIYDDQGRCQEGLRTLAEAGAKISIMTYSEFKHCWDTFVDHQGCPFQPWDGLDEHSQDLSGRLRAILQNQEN

Turning to `CCOC(=O)N1CCN(Cc2nc(N)nc(Nc3ccc(Oc4ccccc4)cc3)n2)CC1`, in test [1], the IC50 was > 20 µM (inactive).
`CCN=c1ccc(Br)cc(C(=O)/C=C/c2ccc3c(c2)OCO3)c1O`: the CC50 is 32.6 µM (active) in [2] and 13.8 µM (active) in test [3]. Moreover, the IC50 in test [1] is > 20 µM (inactive).
For the compound `CCCCCNc1nc(NCCCO)c(C#N)c2c1CN(C)CC2`, the AC50 in test [4] was > 20 µM (inactive). Further, the figures for the IC50 in test [5] and in test [6] were > 109 µM (inactive) and > 83.3 µM (inactive), respectively.
For the compound `CCOC(=O)CSc1nc2c(sc3ccccc32)c(=O)n1CCCN1CCOCC1`, the IC50 in test [7] is 40 µM (not active).
For `O=C(NCc1ccccc1)c1[nH]nnc1-c1ccccc1O`, the IC50 in test [8] is > 122 µM (inactive); in test [9], 108 µM (inactive).
Take `O=C1N=C(S)SC1=C1CCCC1`: the IC50 in [10] is 5.61 µM (active); in test [8], > 122 µM (inactive); against Estrogen receptor beta [11], > 50 µM (not active); at Estrogen receptor beta [12], 0.24 µM (not active); in test [9], 47.5 µM (inactive); in [13], 7.39 µM (active).
Take `COC(=O)c1c(NC(=O)Cc2cccs2)sc(C)c1C`: in [7], the IC50 is listed as 34.8 µM (not active).
Take `CCOC(=O)c1c(NC(=O)CSc2nnc(-c3ccco3)o2)sc(C)c1C`: the IC50 in test [5] was > 109 µM (inactive); in test [6], > 83.3 µM (inactive).
For the compound `O=c1[nH]c(=S)c2c(n1-c1ccccc1)CCC2`, the IC50 in test [7] is recorded as 76 µM (not active).
In the case of `FC(F)(F)c1cnc(Oc2ccccc2-c2nnc(-c3ccc(Cl)cc3)o2)c(Cl)c1`, the IC50 in test [8] and in [9] was > 123 µM (inactive) throughout.
`Cc1nnc2sc(SCC(=O)Nc3ccc(Br)cc3)nn2c1=O`: the IC50 in test [5] was > 109 µM (inactive); in test [6], > 83.3 µM (inactive).
As to `C[C@@H]1CCCCO[C@H](CN(C)Cc2ccc(C(F)(F)F)cc2)[C@H](C)CN([C@H](C)CO)C(=O)c2cc(NC(=O)c3ccccc3)ccc2O1`, the AC50 was 10.1 µM (active) on Paired box protein Pax-8, 45.2 µM (active) in test [14] and 43.7 µM (active) in test [15].
